Patent US9980943B2, “Methods of treating muscular dystrophy” (BOARD OF REGENTS OF THE NEVADA SYSTEM OF HIGHER EDUCATION, …, priority 2013, dated 2018)

Assays:
Assay type in all cases: cell-based, mouse
[1] = system: β-galactosidase in CMV-LacZ C2C12 myoblasts; assay: CMV-LacZ secondary screen in C2C12 myoblasts (β-Gal stabilizing assay); conditions: for CMV-LACZ in Myoblasts, value relative to DMSO: SU9516 analogs, C2C12 CMV-LacZ, N=2; for CMV-LACZ in Myoblasts (β-galactosidase activity relative to DMSO): CMV-LacZ C2C12 myoblasts
Method in brief: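 First, C2C12 myoblasts were transfected with a linearized CMV-LACZ vector and clonal lines selected by FDG β-gal assay. Then cells were exposed to compounds at 0.5, 1, 5, 10, 20 and 40 μM in 96-well format, two replicates each, and β-gal measured.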

[2] = system: β-galactosidase in CMV-LacZ C2C12 myotubes; assay: CMV-LacZ secondary screen in C2C12 myotubes (β-Gal stabilizing assay); conditions: for CMV-LACZ in Myotubes, value relative to DMSO: SU9516 analogs, C2C12 CMV-LacZ, N=2; for CMV-LACZ in Myotubes, signal relative to DMSO: C2C12 CMV-LacZ myotubes, fold relative to DMSO
Method in brief: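 CMV-LacZ C2C12 line (clonal, FDG-screened); myoblasts/myotubes dosed 0.5–40 μM (0.5, 1, 5, 10, 20, 40 μM); n=2 per point; β-gal stabilization read-out.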

[3] = system: α7 integrin (LacZ reporter in α7+/LacZ myotubes); assay: Myotube α7 integrin FDG assay (Burkin assay in myotubes, 96-well); conditions: for Burkin Assay in Myotubes, value relative to DMSO: SU9516 analogs, 96-well, N=3-6
[4] = system: α7 integrin (LacZ reporter in α7βgal+/− myoblasts); assay: Myoblast α7+/LacZ integrin FDG assay (Burkin assay in myoblasts, 96-well); conditions: for Burkin Assay in Myoblasts, value relative to DMSO: SU9516 analogs, N=3-6; for Burkin Assay in Myoblasts, value relative to DMSO / Burkin Assay in Myoblasts, signal relative to DMSO: 96-well; for Burkin Assay in Myoblasts, signal relative to DMSO: α7+/LacZ myoblasts
[5] = Mus musculus, Myoblast, 48 h, read-out: Burkin Assay in Myoblasts, value relative to DMSO

Cc1cc(C)c(/C=C2\C(=O)Nc3ccccc32)[nH]1 [NCGC00094381-05]
CMV-LACZ in Myoblasts, value relative to DMSO ([1]; 0.5 uM): 0.8383 | CMV-LACZ in Myoblasts, value relative to DMSO ([1]; 5 uM): 0.9614 | CMV-LACZ in Myoblasts, value relative to DMSO ([1]; 10 uM): 0.8606 | CMV-LACZ in Myoblasts, value relative to DMSO ([1]; 20 uM): 0.7147 | CMV-LACZ in Myoblasts, value relative to DMSO ([1]; 40 uM): 0.8220 | CMV-LACZ in Myotubes, value relative to DMSO ([2]; 0.5 uM): 1.0045 | CMV-LACZ in Myotubes, value relative to DMSO ([2]; 1 uM): 0.8773 | CMV-LACZ in Myotubes, value relative to DMSO ([2]; 5 uM): 1.2069 | CMV-LACZ in Myotubes, value relative to DMSO ([2]; 10 uM): 2.8305 | CMV-LACZ in Myotubes, value relative to DMSO ([2]; 20 uM): 6.8950 | CMV-LACZ in Myotubes, value relative to DMSO ([2]; 40 uM): 18.0610 | Burkin Assay in Myotubes, value relative to DMSO ([3]; 0.5 uM): 0.9234 | Burkin Assay in Myotubes, value relative to DMSO ([3]; 1 uM): 0.931 | Burkin Assay in Myotubes, value relative to DMSO ([3]; 5 uM): 1.047 | Burkin Assay in Myotubes, value relative to DMSO ([3]; 10 uM): 1.319 | Burkin Assay in Myotubes, value relative to DMSO ([3]; 20 uM): 1.05 | Burkin Assay in Myotubes, value relative to DMSO ([3]; 40 uM): 1.138 | Burkin Assay in Myoblasts, value relative to DMSO ([4]; 0.5 uM): 0.9433 | Burkin Assay in Myoblasts, value relative to DMSO ([4]; 1 uM): 0.9804 | Burkin Assay in Myoblasts, value relative to DMSO ([4]; 5 uM): 0.7532 | Burkin Assay in Myoblasts, value relative to DMSO ([4]; 10 uM): 0.7145 | Burkin Assay in Myoblasts, value relative to DMSO ([4]; 20 uM): 0.8879 | Burkin Assay in Myoblasts, value relative to DMSO ([4]; 40 uM): 0.7578

COc1ccccc1/C=C1\C(=O)Nc2ccccc21 [MLS001202634-01]
CMV-LACZ in Myoblasts, value relative to DMSO ([1]; 0.5 uM): 1.0500 | CMV-LACZ in Myoblasts, value relative to DMSO ([1]; 1 uM): 1.0071 | CMV-LACZ in Myoblasts, value relative to DMSO ([1]; 5 uM): 1.1287 | CMV-LACZ in Myoblasts, value relative to DMSO ([1]; 10 uM): 1.0990 | CMV-LACZ in Myoblasts, value relative to DMSO ([1]; 20 uM): 1.0817 | CMV-LACZ in Myoblasts, value relative to DMSO ([1]; 40 uM): 0.9217 | CMV-LACZ in Myotubes, value relative to DMSO ([2]; 0.5 uM): 0.9582 | CMV-LACZ in Myotubes, value relative to DMSO ([2]; 1 uM): 1.0073 | CMV-LACZ in Myotubes, value relative to DMSO ([2]; 5 uM): 1.2348 | CMV-LACZ in Myotubes, value relative to DMSO ([2]; 10 uM): 0.9661 | CMV-LACZ in Myotubes, value relative to DMSO ([2]; 20 uM): 0.9750 | CMV-LACZ in Myotubes, value relative to DMSO ([2]; 40 uM): 0.9340 | Burkin Assay in Myotubes, value relative to DMSO ([3]; 0.5 uM): 0.9928 | Burkin Assay in Myotubes, value relative to DMSO ([3]; 1 uM): 1.1156 | Burkin Assay in Myotubes, value relative to DMSO ([3]; 5 uM): 0.9675 | Burkin Assay in Myotubes, value relative to DMSO ([3]; 10 uM): 1.139 | Burkin Assay in Myotubes, value relative to DMSO ([3]; 20 uM): 0.9473 | Burkin Assay in Myotubes, value relative to DMSO ([3]; 40 uM): 1.289 | fold induction at 0.5 µM [4, 5]: 1.21 | fold induction at 1 µM [4, 5]: 1.1 | fold induction at 5 µM [4, 5]: 1.14 | fold induction at 10 µM [4, 5]: 1.31 | fold induction at 20 µM [4, 5]: 0.994 | fold induction at 40 µM [4, 5]: 0.931

CC1(C)Cc2c(c(N3CCOCC3)nc3sc(C(=O)Nc4ccccc4)c(N)c23)CO1 [MLS001075922-01]
CMV-LACZ in Myoblasts (β-galactosidase activity relative to DMSO) ([1]; 0.5 uM): 0.9434 | CMV-LACZ in Myoblasts (β-galactosidase activity relative to DMSO) ([1]; 1 uM): 1.3028 | CMV-LACZ in Myoblasts (β-galactosidase activity relative to DMSO) ([1]; 5 uM): 1.6332 | CMV-LACZ in Myoblasts (β-galactosidase activity relative to DMSO) ([1]; 10 uM): 1.2361 | CMV-LACZ in Myoblasts (β-galactosidase activity relative to DMSO) ([1]; 20 uM): 0.9881 | CMV-LACZ in Myoblasts (β-galactosidase activity relative to DMSO) ([1]; 40 uM): 1.3037 | CMV-LACZ in Myotubes, signal relative to DMSO ([2]; 0.5 uM): 1.0222 | CMV-LACZ in Myotubes, signal relative to DMSO ([2]; 1 uM): 1.0533 | CMV-LACZ in Myotubes, signal relative to DMSO ([2]; 5 uM): 1.2947 | CMV-LACZ in Myotubes, signal relative to DMSO ([2]; 10 uM): 1.2173 | CMV-LACZ in Myotubes, signal relative to DMSO ([2]; 20 uM): 1.0282 | CMV-LACZ in Myotubes, signal relative to DMSO ([2]; 40 uM): 0.8388 | Burkin Assay in Myotubes, α7 integrin LacZ reporter signal relative to DMSO ([3]; 0.5 uM): 1.292 | Burkin Assay in Myotubes, α7 integrin LacZ reporter signal relative to DMSO ([3]; 1 uM): 1.143 | Burkin Assay in Myotubes, α7 integrin LacZ reporter signal relative to DMSO ([3]; 5 uM): 0.6556 | Burkin Assay in Myotubes, α7 integrin LacZ reporter signal relative to DMSO ([3]; 10 uM): 0.629 | Burkin Assay in Myotubes, α7 integrin LacZ reporter signal relative to DMSO ([3]; 20 uM): 1.067 | Burkin Assay in Myotubes, α7 integrin LacZ reporter signal relative to DMSO ([3]; 40 uM): 0.8243 | Burkin Assay in Myoblasts, signal relative to DMSO ([4]; 0.5 uM): 1.2085 | Burkin Assay in Myoblasts, signal relative to DMSO ([4]; 1 uM): 1.292 | Burkin Assay in Myoblasts, signal relative to DMSO ([4]; 5 uM): 0.6039 | Burkin Assay in Myoblasts, signal relative to DMSO ([4]; 10 uM): 0.2869 | Burkin Assay in Myoblasts, signal relative to DMSO ([4]; 20 uM): 0.5678 | Burkin Assay in Myoblasts, signal relative to DMSO ([4]; 40 uM): 0.6464
